{
  "source": "patent US9642366B2",
  "about": "“Active substance combinations that have nematicidal, insecticidal, and fungicidal properties and are based on trifluorobutenyl compounds” (priority 2003, dated 2017)",
  "key": {"[1]": {"tested_on": "Meloidogyne incognita", "test": "Meloidogyne test (nematicidal action, gall formation on lettuce roots)", "format": "in vivo", "details": "single active compound", "source_text": "(§1) The expected action for a given combination of two active compounds can be calculated as follows (cf. Colby, S. R., “Calculating Synergistic and Antagonistic Responses of Herbicide Combinations”, Weeds 15 (1967), 20-22):\n(§2) If • X is the efficacy or kill rate, expressed as a percentage of the untreated control, when employing active compound A in a concentration of m ppm, • Y is the efficacy or kill rate, expressed as a percentage of the untreated control, when employing active compound B in a concentration of […] and • E is the efficacy or kill rate, expressed as a percentage of the untreated control, when employing active compounds A and B in a concentration of m and n ppm,\n(§3) If the actual fungicidal or nematicidal, insecticidal and/or acaricidal action exceeds the calculated value, the action of the combination is superadditive, i.e. a synergistic effect is present. In this case, the actually observed efficacy or kill rate must exceed the value calculated using the above formula for the expected efficacy (E).\nSolvent: 7 parts by weight of dimethylformamide\nEmulsifier: 2 parts by weight of alkylaryl polyglycol ether\nTo produce a suitable preparation of active compound, 1 part by weight of active compound is mixed with the stated amounts of solvent and emulsifier, and the concentrate is diluted with water to the desired concentration.\nVessels are filled with sand, solution of active compound, Meloidogyne incognita egg/larvae suspension and lettuce seeds. The lettuce seeds germinate and plants develop. On the roots, galls are formed.\nAfter the desired period of time, the nematicidal action is determined in % by the formation of galls. 100% means that no galls have been found; 0% means that the number of galls on the treated plants corresponds to that of the untreated control. The determined kill rates are inserted into Colby's formula."}, "[2]": {"tested_on": "Plutella xylostella, sensitive strain", "test": "Plutella test, sensitive strain (insecticidal action, dipped cabbage leaves)", "format": "in vivo", "details": "100 ppm, single active compound", "source_text": "as §1, §2, §3\nSolvent: 7 parts by weight of dimethylformamide […]\nCabbage leaves (Brassica oleracea) are treated by being dipped into the preparation of active compound of the desired concentration and are populated with caterpillars of the diamondback moth (Plutella xylostella, sensitive strain) while the leaves are still moist. After the desired period of time, the kill in % is determined. […]"}, "[3]": {"tested_on": "Phytophthora cactorum", "test": "Mycelium growth test with Phytophthora cactorum", "format": "cell-based", "details": "single active compound"}, "[4]": {"tested_on": "Fusarium nivale", "test": "Mycelium growth test with Fusarium nivale", "format": "cell-based", "details": "1 ppm in the nutrient medium, single active compound"}, "[5]": {"tested_on": "Rhizoctonia solani", "test": "Mycelium growth test with Rhizoctonia solani", "format": "cell-based", "details": "single active compound"}, "[6]": {"tested_on": "Phythium ultimum", "test": "Mycelium growth test with Phythium ultimum", "format": "cell-based", "details": "single active compound"}},
  "note": "Several values for one entry are separate records, joined by “and”; a condition that tells them apart may be missing. Equal values may be shown once.",
  "data": [
    {"compound": "O=S(=O)(CCC(F)=C(F)F)c1ncc(Cl)s1", "note": "[(IC)]", "values": [
      {"measurement": "Kill rate [%] after 14 days", "setting": "[1]; 0.8 ppm", "value": 50, "unit": "%"},
      {"measurement": "Kill rate [%] after 3 days", "setting": "[2]", "value": 0, "unit": "%"},
      {"measurement": "Efficacy [%]", "setting": "[3]; 50 ppm in the nutrient medium", "value": 7, "unit": "%"},
      {"measurement": "Efficacy [%]", "setting": "[3]; 100 ppm in the nutrient medium", "value": "18% and 23%"},
      {"measurement": "Efficacy [%]", "setting": "[4]", "value": 15, "unit": "%"},
      {"measurement": "Efficacy [%]", "setting": "[5]; 1 ppm in the nutrient medium", "value": 0, "unit": "%"},
      {"measurement": "Efficacy [%]", "setting": "[5]; 10 ppm in the nutrient medium", "value": 49, "unit": "%"}
    ]},
    {"compound": "N#Cc1c[nH]cc1-c1cccc2c1OC(F)(F)O2", "note": "[fludioxonil]", "values": [
      {"measurement": "Kill rate [%] after 14 days", "setting": "[1]; 20 ppm", "value": 0, "unit": "%"}
    ]},
    {"compound": "CO/N=C(/C1=NOCCO1)c1ccccc1Oc1ncnc(Oc2ccccc2Cl)c1F", "note": "[fluoxastrobin]", "values": [
      {"measurement": "Efficacy [%]", "setting": "[3]; 5 ppm in the nutrient medium", "value": 28, "unit": "%"},
      {"measurement": "Efficacy [%]", "setting": "[6]; 10 ppm in the nutrient medium", "value": 74, "unit": "%"},
      {"measurement": "Efficacy [%]", "setting": "[5]; 1 ppm in the nutrient medium", "value": 39, "unit": "%"}
    ]},
    {"compound": "CC(C)NC(=O)N1CC(=O)N(c2cc(Cl)cc(Cl)c2)C1=O", "note": "[iprodione]", "values": [
      {"measurement": "Efficacy [%]", "setting": "[6]; 200 ppm in the nutrient medium", "value": 9, "unit": "%"}
    ]},
    {"compound": "O=C(Nc1ccccc1)N(Cc1ccc(Cl)cc1)C1CCCC1", "note": "[pencycuron]", "values": [
      {"measurement": "Efficacy [%]", "setting": "[3]; 200 ppm in the nutrient medium", "value": 0, "unit": "%"}
    ]},
    {"compound": "CCCN(CCOc1c(Cl)cc(Cl)cc1Cl)C(=O)n1ccnc1", "note": "[prochloraz]", "values": [
      {"measurement": "Efficacy [%]", "setting": "[3]; 50 ppm in the nutrient medium", "value": 30, "unit": "%"}
    ]},
    {"compound": "OC(Cc1ccccc1Cl)(Cn1nc[nH]c1=S)C1(Cl)CC1", "note": "(centres unmarked) [prothioconazole]", "values": [
      {"measurement": "Kill rate [%] after 14 days", "setting": "[1]; 20 ppm", "value": 50, "unit": "%"}
    ]},
    {"compound": "CC(C)(C)C(O)(CCc1ccc(Cl)cc1)Cn1cncn1", "note": "(centres unmarked) [tebuconazole]", "values": [
      {"measurement": "Efficacy [%]", "setting": "[3]; 100 ppm in the nutrient medium", "value": 12, "unit": "%"},
      {"measurement": "Efficacy [%]", "setting": "[6]; 100 ppm in the nutrient medium", "value": 72, "unit": "%"}
    ]},
    {"compound": "CO/N=C(\\C(=O)OC)c1ccccc1CO/N=C(\\C)c1cccc(C(F)(F)F)c1", "note": "[trifloxystrobin]", "values": [
      {"measurement": "Kill rate [%] after 14 days", "setting": "[1]; 20 ppm", "value": 0, "unit": "%"},
      {"measurement": "Kill rate [%] after 3 days", "setting": "[2]", "value": 15, "unit": "%"},
      {"measurement": "Efficacy [%]", "setting": "[3]; 10 ppm in the nutrient medium", "value": 29, "unit": "%"},
      {"measurement": "Efficacy [%]", "setting": "[5]; 1 ppm in the nutrient medium", "value": 39, "unit": "%"}
    ]},
    {"compound": "tolylfluanid", "values": [
      {"measurement": "Efficacy [%]", "setting": "[3]; 10 ppm in the nutrient medium", "value": 65, "unit": "%"},
      {"measurement": "Efficacy [%]", "setting": "[6]; 10 ppm in the nutrient medium", "value": 82, "unit": "%"}
    ]}
  ]
}
